The subject of series [1] is Sus scrofa. As to conditions: subchronic; duration: 3 months; oral; diet; Not specified; food consumption.
Series [2] relates to Oryctolagus sp. Conditions: short-term; duration: 21 days; oral; diet; M; no effects.
For series [3], the system named is Mus musculus.
The test system of series [4] is Equus caballus. Conditions: subchronic; duration: 40 days; no effects.
Series [5] has as its system Neovison vison. Conditions: short-term; duration: 28 days; oral; diet; F; food consumption.
The subject of series [6] is Meleagris sp. Conditions: subchronic; duration: 12 weeks; oral; feed; M; no effects.
In series [7] the test system is Bovidae.
The subject of series [8] is Felidae. Conditions: short-term; duration: 14 days; oral; diet; Cat; body weight.
For series [9], the system named is Ovis sp. Conditions: short-term; duration: 28 days; oral; diet; food consumption.
The test system of series [10] is Anatidae. Conditions: not reported; oral; feed; no effects.
In series [11] the test system is Cyprinus carpio. As to conditions: subchronic; duration: 6 weeks; oral; feed; histopathology: nonneoplastic.
For series [12], the system named is Canidae. As to conditions: short-term; duration: 14 days; oral; diet; Dog Other; body weight.
For series [13], the system named is Gallus gallus. Conditions: subchronic; duration: 5 weeks; oral; diet; M; Chicken; no effects.

NOAEL and LEL data for one compound are collected here from EPA's ToxValDB 9.5 (doi:10.2903/j.efsa.2017.4718).

Molecules are shown by their SMILES.

One may read the NOAEL as the highest dose or exposure tested at which no adverse effect was seen. Consider `CC1=C[C@H]2O[C@@H]3[C@H](O)C[C@](C)([C@@]2(CO)[C@H](O)C1=O)[C@@]31CO1` [Vomitoxin], for which the no-observed-adverse-effect level (NOAEL) turned out to be 0.7 mg/kg-day in [1]; 4.3 mg/kg-day in [2]; 0.1 mg/kg-day in [3] (chronic, duration: 2 years, oral, diet, M/F, B6C3F1, food consumption); 0.5 mg/kg-day in series [3] (developmental, development); 0.38 mg/kg-day in series [3] (reproduction developmental, oral, diet, M/F, reproduction); 0.1 mg/kg-day in [3] (short-term, duration: 14 days, oral, diet, M/F, BALB/cAnCr, hematological). Also, the NOAEL came out at 36 mg/kg in series [4]; 1.18 mg/kg-day in series [5]; 6.5 mg/kg in series [6]; 10 mg/kg-day in series [7] (chronic, duration: 126 days, oral, diet, food consumption); 18 mg/kg-day in series [7] (chronic, duration: 166 days, oral, diet, food consumption); 5.24 mg/kg-day in [7] (subchronic, duration: 13 weeks, F, no effects). Besides, the NOAEL came out at 6 mg/kg-day in [8]; 16 mg/kg-day in series [9]; 7 mg/kg in series [10]; 0.6 mg/kg in series [11]; 4 mg/kg-day in series [12]; 5 mg/kg-day in series [13]. The LEL in [3] (chronic, duration: 2 years, immunology) was ≥ 0.0016 mg/kg-day.
